From patent EP0460883B1, “Process for beta-hydroxy-alpha-amino acids” (THE UNIVERSITY OF NOTRE DAME DU LAC, priority 1990, dated 1991)

What was measured:
[1] = tested on: serine hydroxymethyltransferase (SHMT); assay: Conversion of aldehyde substrates and glycine to β-hydroxy-α-amino acids by SHMT (HPLC assay); format: biochemical, corn; set-up: key: + = conversion; - = no detectable conversion
Method: (§1) The following Table 1 lists representative aldehyde substrates which were converted in the process to β-hydroxy-α-amino acids with SHMT from two sources. The conversion of the substrates in Table 1 was carried out by incubating the substrate and glycine with SHMT under the conditions of the process. A number of the process conditions used were common to all of the substrates and are detailed in the following paragraphs. Wherever exceptions occurred they are noted in each instance.
(§2) The incubations were carried out in 10 mM phosphate buffer, pH 7.3 containing pyridoxal 5′-phosphate at a concentration of about 80 µM. All solutions were prepared from distilled, deionized water for best results. The conversions were carried out at about 37°C in sealed, 500 µL polypropylene micro-centrifuge vials in a constant-temperature water bath. The vials were protected from light except when removed from the water bath for removal of aliquots for analysis. With all conversions an enzyme blank incubation was carried out in parallel with the SHMT incubation. The total volume of the incubation mixture was typically about 200 µL. The conditions in the blank were identical to those of the incubation mixture except for the absence of the enzyme.
(§3) The process can be monitored for production of the β-hydroxy-α-amino acid by removing aliquots from the incubation mixture from time to time and assaying the samples by HPLC separation and fluorescence detection of o-phthalaldehyde derived isoindoles of all primary amine compounds present in the mixture. The assay procedure is described by Jones, B.N.; Gilligan, J. P., J. Chrom. 1983, 266, 471; Jones, B. N. et al., J. Liq. Chrom. 1981, 4,565, and Simons, Jr., S. S. et al., J. Am Chem. Soc. 1976, 98, 7098. HPLC analysis of both the incubation mixture and the enzyme blank allowed determination of which peak(s) on the chromatograms could be assigned to enzyme products.
All of the following procedures were carried out at 4°C. Washed 5-7 day old corn seedlings were homogenized in a Waring blender in 100 mM potassium monohydrogen phosphate containing 1 mM disodium ethylenediaminetetraacetate (EDTA), 1 mM dithiothreitol, and 125 µM of pyridoxal 5'-phosphate. The mix contained approximately 960 g of seedlings per liter. The homogenate was filtered through cheese cloth and the filtrate was subjected to ammonium sulfate precipitation. The protein which precipitated with 35-50% saturation in ammonium sulfate upon centrifuging at 13,800 x g for 40 min. was dissolved in 10 mM phosphate buffer, pH 7.8, containing […] pyridoxal 5'-phosphate and 1 mM EDTA. The solution was dialyzed and concentrated to 5-15 mg of protein/ml in the same buffer without EDTA present. Assay for aldolase activity of the protein consisted of a coupled system between the aldolase-catalyzed retroaldol of L-allo-threonine with the NADH (reduced form of nicotinamide adenine dinucleotide) dependent reduction of the resulting acetaldehyde by yeast alcohol dehydrogenase (ADH). Specific activity averaged 78 milliunits/mg of protein. One unit of enzyme activity is defined as that amount of enzyme required to cause a change of one optical density unit (at 340 nm) per minute at room temperature in the presence of ADH, 120 mM L-allo-threonine, 125 µM PLP, and 120 µM NADH in 100 mM phosphate buffer, pH 7.5.

[2] = target: T1, serine hydroxymethyltransferase (SHMT) (Oryctolagus cuniculus, UniProt P07511); assay: as above; format: biochemical, rabbit; set-up: key: + = conversion; - = no detectable conversion
T1 construct: Three such sources are rabbit liver (LaVerne Schirch and Merle Mason, J. Biol. Chem., Vol. 237, No. 8, August 1962); from tissue; host or cells: rabbit liver
T1 sequence (P07511 2-484 limits assumed): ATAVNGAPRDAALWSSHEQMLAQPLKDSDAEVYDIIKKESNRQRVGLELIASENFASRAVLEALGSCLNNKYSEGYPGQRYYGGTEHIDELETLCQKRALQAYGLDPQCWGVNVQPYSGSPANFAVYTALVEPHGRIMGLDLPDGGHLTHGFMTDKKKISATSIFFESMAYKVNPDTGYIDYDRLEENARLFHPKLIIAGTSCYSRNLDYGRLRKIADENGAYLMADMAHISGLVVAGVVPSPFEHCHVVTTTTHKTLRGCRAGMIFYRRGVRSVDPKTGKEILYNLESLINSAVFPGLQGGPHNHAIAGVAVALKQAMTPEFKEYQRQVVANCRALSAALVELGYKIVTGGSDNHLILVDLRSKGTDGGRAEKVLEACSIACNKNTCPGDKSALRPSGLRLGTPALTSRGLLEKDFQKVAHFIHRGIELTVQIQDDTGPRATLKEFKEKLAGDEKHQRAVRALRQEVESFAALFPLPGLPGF
Method: as §1, §2, §3

[3] = incubation with glycine, 10 mM phosphate buffer pH 7.3, pyridoxal 5′-phosphate about 80 µM, about 37°C

| Compound | Aldehyde (RCHO) Substrates for SHMT, Enzyme Corn Seedlings [1, 3] | Aldehyde (RCHO) Substrates for SHMT, Enzyme Rabbit Liver ([2]; as the other substrates, but VO3- (metavanadate) was present) | Aldehyde (RCHO) Substrates for SHMT, Enzyme Corn Seedlings ([1]; as the other substrates, but tetrahydrofolate was present) | Aldehyde (RCHO) Substrates for SHMT, Enzyme Rabbit Liver [2, 3] |
| --- | --- | --- | --- | --- |
| CCC=O [-CH2CH3, propionaldehyde] | + |  |  |  |
| CC(=O)C=O [-C(O)CH3, pyruvaldehyde] |  | + | + |  |
| O=CCCc1ccco1 | - |  |  | + |
| O=Cc1ccccc1 [Example C6H5, benzaldehyde] | - |  |  | + |
| O=CCOCc1ccccc1 [-CH2OCH2C6H5] | + |  |  |  |
| CCCC=O [-CH2CH2CH3, n-butanal] |  |  |  | + |
| COC(=O)CCC=O [-CH2CH2CO2CH3, succinic semialdehyde methyl ester] | + |  |  | + |
| CC(C)OC(=O)CCC=O [-CH2CH2CO2(CH3)2, succinic semialdehyde isopropyl ester] |  |  |  | + |
| O=CCCCOC=O [-CH2CH2CH2OCHO, O-formyl 4-hydroxybutanal] |  |  |  | + |
| O=Cc1ccco1 [Example 2-furyl, 2-furfural] | + |  |  | + |
| CC=O [-CH3, acetaldehyde] | + |  |  | + |
| O=CC(=O)O [-CO2H] | - |  |  | - |
| COC(=O)CCCC=O [-CH2CH2CH2CO2CH3, Glutaric semialdehyde methyl ester] | + |  |  | + |
